The structures appear in SMILES notation. Like-named read-outs stand apart in the source and are kept apart here.

Experiment [1] relates to LncP (Legionella nucleotide carrier Protein). It counts as biochemical, Legionella pneumophila.
The test system is the same in experiment [2].

By Km is commonly meant the substrate concentration at which the rate is half of its maximum. Take `Nc1nc2c(ncn2[C@@H]2O[C@H](COP(=O)(O)OP(=O)(O)OP(=O)(O)O)[C@@H](O)[C@H]2O)c(=O)[nH]1` [GTP]: the Km in experiment [1] worked out at 183 ± 32 µM.
With `Nc1ncnc2c1ncn2[C@@H]1O[C@H](COP(=O)(O)OP(=O)(O)OP(=O)(O)O)[C@@H](O)[C@H]1O` [ATP], in experiment [2], the Km was 190 ± 37 µM.

The record behind these values is article PMC3252375 (PLoS Pathogens, 2012).
